Where two headings read alike, the source gives them in different places.
Legend:
[1] = tested on: butanol non-producing bacterial cells; assay: Feeding with fatty acids followed by screening for butanol tolerance; assay type: cell-based; conditions: fed to cells; among about ten different fatty acids tested
Source text: The discovery came from results of studies on feeding butanol non-producing bacterial cells with different fatty acids followed by screening for butanol tolerance.

[2] = tested on: Lactobacillus plantarum PN1312; assay: Change in OD600 in S36 medium, PN1312 (spoT mutant, cfa1); assay type: cell-based; conditions: 3% isobutanol
Source text: (§1) The purpose of this Example was to test the effect of a combination of cfa1 overexpression and spoT mutation on the isobutanol tolerance of Lactobacillus plantarum. To create a strain with both gene modifications, pFP996-atpB-cfa1 (described in Example 1; also called pFP996-1)) was transformed into the MS0280 strain (described in Example 4; also called PN1300) creating strain PN1312. For a control strain, pFP996 (described in Example 1) was transformed into MS0280 creating PN1310. Strain PN1312, which contained a multicopy expression plasmid with cfa1, was compared to strain PN1310, which contained the vector control.
(§2) The growth of the strains over time was followed, and tolerance compared as follows. The strains were cultured in S36 medium (contains 10 mM ammonium sulfate, 5 mM potassium phosphate buffer, pH 6.0, 50 mM MES, pH 6.0, 2 mM MgCl2, 0.7 mM CaCl2, 50 μM MnCl2, 1 μM FeCl3, 1 μM ZnCl2, 1.72 μM CuCl2, 2.53 μM CoCl2, 2.42 μM Na2MoO4, 2 μM thiamine hydrochloride, 0.01 M glucose, 0.2% yeast extract and 0.01% casamino acids) overnight at 30° C. under anaerobic conditions. The next day, cultures were started from the overnight cultures in fresh medium, with initial OD600 values of 0.18. These cultures were incubated at 30° C. under anaerobic conditions for 4 hours. During this time, PN1310 reached an OD600 of 0.83, and PN1312 reach an OD600 of 0.61. […]

[3] = tested on: L. plantarum PN2005; assay: Bioscreen-C growth analysis in MRS medium, PN2005 (cfa2); assay type: cell-based, Lactobacillus plantarum; conditions: strain PN2005 (cfa2)
Procedure: (§3) For Bioscreen-C (instrument purchased from Growth Curves USA, Piscataway N.J.) growth curves, the cultures were grown overnight in MRS medium containing 1 μg/ml erythromycin at 30° C. The next day, these were diluted to OD600 of 0.1 in the wells of the Bioscreen plate with MRS medium containing 1 μg/ml erythromycin and either 2.25% (w/v) isobutanol or no isobutanol at 30° C.
(§4) L. plantarum strains PN2001, PN2003, PN2005, PN2010, PN2012, and PN2014 were tested for growth in a Bioscreen-C growth curve machine in the presence of isobutanol as described in General Methods. These growth assays were conducted in MRS medium, which contains 1 g/L polysorbate 80 (commercially also known as Tween® 80) that serves as a source of oleic acid. Erythromycin at 1 μg/ml was added to the medium to maintain the plasmids. It is well known that L. plantarum grown in MRS medium incorporates oleic acid into membrane lipids (Johnsson et al. (1995) Appl. Environ. Microbiol. 61:4497-4499).

[4] = tested on: Lactobacillus plantarum PN2001; assay: microbe, parasite or virus in culture; conditions: Lactiplantibacillus plantarum, PN2001, pH 7, read-out: PN2001, % Growth inhibition
[5] = tested on: Lactobacillus plantarum PN2014; conditions: shake flask; for PN2014 (control plasmid) μ: semi-synthetic LAB medium pH7, 30° C; for PN2014, % Growth inhibition: semi-synthetic LAB medium pH7
[6] = tested on: Lactobacillus plantarum PN2001; conditions: shake flask; for PN2001 (cfa1 plasmid) μ: semi-synthetic LAB medium pH7, 30° C; for PN2001, % Growth inhibition: semi-synthetic LAB medium pH7
[7] = tested on: L. plantarum PN2012; assay: Bioscreen-C growth analysis in MRS medium, PN2012 (control); assay type: cell-based, Lactobacillus plantarum; conditions: strain PN2012 (no gene on plasmid)
Procedure: as §3, §4

[8] = tested on: L. plantarum PN2010; assay: Bioscreen-C growth analysis in MRS medium, PN2010 (cfa2); assay type: cell-based, Lactobacillus plantarum; conditions: strain PN2010 (cfa2)
Procedure: as §3, §4

[9] = tested on: Lactobacillus plantarum PN2014; assay: microbe, parasite or virus in culture; conditions: Lactiplantibacillus plantarum, PN2014, pH 7, read-out: PN2014, % Growth inhibition
[10] = tested on: L. plantarum PN2001; assay: Bioscreen-C growth analysis in MRS medium, PN2001 (cfa1); assay type: cell-based, Lactobacillus plantarum; conditions: strain PN2001 (cfa1)
Procedure: as §3, §4

[11] = tested on: Lactobacillus plantarum PN1310; assay: Change in OD600 in S36 medium, PN1310 (spoT mutant, vector); assay type: cell-based; conditions: 3% isobutanol
Source text: as §1, §2

[12] = tested on: E. coli strain DPD4655; assay: Bioscreen-C growth in LB medium, DPD4655 (cfa overexpression); assay type: cell-based; conditions: 3 hour and 15 minute time point; for OD600 (+/− st dev): LB medium, 37° C
Procedure: (§5) E. coli strains DPD4655 and DPD4658 were grown overnight in LB medium containing 100 μg/ml ampicillin at 37° C. The next day, these were diluted to OD600 of 0.1 in the wells of a Bioscreen-C plate (instrument and plates purchased from Growth Curves USA, Piscataway N.J.) with LB medium and either 0.4%, 0.8% (w/v) isobutanol or no isobutanol at 37° C. in triplicate. OD was monitored and the OD at the 3 hour and 15 minute time point was used to calculate the % of growth in the presence of isobutanol as compared with its absence, given in Table 15.

[13] = tested on: L. plantarum PN2003; assay: Bioscreen-C growth analysis in MRS medium, PN2003 (cfa1); assay type: cell-based, Lactobacillus plantarum; conditions: strain PN2003 (cfa1), 2.25% isobutanol
Procedure: as §3, §4

[14] = tested on: E. coli strain DPD4658; assay: Bioscreen-C growth in LB medium, DPD4658 (control lacZ overexpression); assay type: cell-based; conditions: 3 hour and 15 minute time point; for OD600 (+/− st dev): LB medium, 37° C
Procedure: as §5

[15] = tested on: L. plantarum PN2014; assay: Bioscreen-C growth analysis in MRS medium, PN2014 (control); assay type: cell-based, Lactobacillus plantarum; conditions: strain PN2014 (no gene on plasmid)
Procedure: as §3, §4

[16] = MRS medium (source of oleic acid), 30° C

SMILES: CCCCCCCC[C@@H]1C[C@@H]1CCCCCCCC(=O)O [dihydrosterculic acid]
- effect of feeding on butanol tolerance [1]: increased butanol tolerance

SMILES: CC(C)CO [isobutanol]
- 2 h Δ OD ([2]; PN1312 (cfa1), S36 medium, 30° C, anaerobic): 0.5
- inhibited for growth ([2]; PN1312 (cfa1 overexpression)): 59%
- % Growth inhibition ([3]; 2.25% isobutanol, MRS medium): 39%
- μ (2.25% isobutanol) [3, 16]: 0.31 h⁻¹
- inhibition at 2.25 % strength [4]: 46%
- inhibition at 2.5 % strength [4]: 66%
- inhibition at 2.75 % strength [4]: 70%
- inhibition at 3 % strength [4]: 92%
- inhibition at 3.2 % strength [4]: 100%
- growth in the presence of isobutanol (FIG. 1B) ([5]; PN2014, 3% isobutanol): did not grow
- PN2014 (control plasmid) μ ([5]; isobutanol 2.25% w/v): 0.170 h⁻¹
- PN2014 (control plasmid) μ ([5]; isobutanol 2.5% w/v): 0.118 h⁻¹
- PN2014 (control plasmid) μ ([5]; isobutanol 2.75% w/v): 0.037 h⁻¹
- PN2014 (control plasmid) μ ([5]; isobutanol 3.0% w/v): 0.00 h⁻¹
- PN2014 (control plasmid) μ ([5]; isobutanol 3.2% w/v): 0.00 h⁻¹
- growth in the presence of isobutanol (FIG. 1A) ([6]; PN2001, 3% isobutanol): grew
- PN2001 (cfa1 plasmid) μ ([6]; isobutanol 2.25% w/v): 0.187 h⁻¹
- PN2001 (cfa1 plasmid) μ ([6]; isobutanol 2.5% w/v): 0.119 h⁻¹
- PN2001 (cfa1 plasmid) μ ([6]; isobutanol 2.75% w/v): 0.104 h⁻¹
- PN2001 (cfa1 plasmid) μ ([6]; isobutanol 3.0% w/v): 0.029 h⁻¹
- PN2001 (cfa1 plasmid) μ ([6]; isobutanol 3.2% w/v): 0.00 h⁻¹
- % Growth inhibition ([7]; 2.25% isobutanol, MRS medium): 51%
- μ (2.25% isobutanol) [7, 16]: 0.20 h⁻¹
- % Growth inhibition ([8]; 2.25% isobutanol, MRS medium): 39%
- μ (2.25% isobutanol) [8, 16]: 0.33 h⁻¹
- inhibition at 2.25 % strength [9]: 50%
- inhibition at 2.5 % strength [9]: 66%
- inhibition at 2.75 % strength [9]: 89%
- inhibition at 3 % strength [9]: 100%
- inhibition at 3.2 % strength [9]: 100%
- % Growth inhibition ([10]; 2.25% isobutanol, MRS medium): 32%
- μ (2.25% isobutanol) [10, 16]: 0.32 h⁻¹
- inhibited for growth ([11]; PN1310 (vector alone)): 75%
- 2 h Δ OD ([11]; PN1310 (vector), S36 medium, 30° C, anaerobic): 0.3
- % OD +isobutanol/−isobutanol ([12]; isobutanol 0.4% (w/v)): 72%
- OD600 (+/− st dev) ([12]; isobutanol 0.4% (w/v)): 0.318 +/− 0.005
- % OD +isobutanol/−isobutanol ([12]; isobutanol 0.8% (w/v)): 50%
- OD600 (+/− st dev) ([12]; isobutanol 0.8% (w/v)): 0.220 +/− 0.006
- % Growth inhibition [13]: 34%
- % OD +isobutanol/−isobutanol ([14]; isobutanol 0.4% (w/v)): 63%
- OD600 (+/− st dev) ([14]; isobutanol 0.4% (w/v)): 0.259 +/− 0.004
- % OD +isobutanol/−isobutanol ([14]; isobutanol 0.8% (w/v)): 42%
- OD600 (+/− st dev) ([14]; isobutanol 0.8% (w/v)): 0.174 +/− 0.011
- % Growth inhibition ([15]; 2.25% isobutanol, MRS medium): 42%
- μ (2.25% isobutanol) [15, 16]: 0.22 h⁻¹

SMILES: CCC(C)O (stereo not shown) [2-butanol]
- PN2014, % Growth inhibition ([5]; 2-butanol 3.5% w/v): 48%
- PN2014 (control plasmid) μ ([5]; 2-butanol 3.5% w/v): 0.153 h⁻¹
- PN2014, % Growth inhibition ([5]; 2-butanol 4.0% w/v): 59%
- PN2014 (control plasmid) μ ([5]; 2-butanol 4.0% w/v): 0.123 h⁻¹
- PN2014, % Growth inhibition ([5]; 2-butanol 4.25% w/v): 47%
- PN2014 (control plasmid) μ ([5]; 2-butanol 4.25% w/v): 0.158 h⁻¹
- PN2014, % Growth inhibition ([5]; 2-butanol 4.5% w/v): 79%
- PN2014 (control plasmid) μ ([5]; 2-butanol 4.5% w/v): 0.061 h⁻¹
- PN2014, % Growth inhibition ([5]; 2-butanol 4.75% w/v): 89%
- PN2014 (control plasmid) μ ([5]; 2-butanol 4.75% w/v): 0.034 h⁻¹
- PN2014, % Growth inhibition ([5]; 2-butanol 5.0% w/v): 100%
- PN2014 (control plasmid) μ ([5]; 2-butanol 5.0% w/v): 0.00 h⁻¹
- PN2001, % Growth inhibition ([6]; 2-butanol 3.5% w/v): 54%
- PN2001 (cfa1 plasmid) μ ([6]; 2-butanol 3.5% w/v): 0.132 h⁻¹
- PN2001, % Growth inhibition ([6]; 2-butanol 4.0% w/v): 56%
- PN2001 (cfa1 plasmid) μ ([6]; 2-butanol 4.0% w/v): 0.125 h⁻¹
- PN2001, % Growth inhibition ([6]; 2-butanol 4.25% w/v): 61%
- PN2001 (cfa1 plasmid) μ ([6]; 2-butanol 4.25% w/v): 0.111 h⁻¹
- PN2001, % Growth inhibition ([6]; 2-butanol 4.5% w/v): 62%
- PN2001 (cfa1 plasmid) μ ([6]; 2-butanol 4.5% w/v): 0.108 h⁻¹
- PN2001, % Growth inhibition ([6]; 2-butanol 4.75% w/v): 76%
- PN2001 (cfa1 plasmid) μ ([6]; 2-butanol 4.75% w/v): 0.068 h⁻¹
- PN2001, % Growth inhibition ([6]; 2-butanol 5.0% w/v): 73%
- PN2001 (cfa1 plasmid) μ ([6]; 2-butanol 5.0% w/v): 0.078 h⁻¹

— patent US8518678B2, “Strain comprising increased expression of a CFA coding region for butanol production” (Butamax(TM) Advanced Biofuels LLC, priority 2007, dated 2013)
